Assay results taken from patent publication US20240308996A1, “PYRIDOPYRIDINES AND DERIVATIVES THEREOF AS SELECTIVE KINASE INHIBITORS” (University of Sharjah, priority 2023, published 2024).

Experiments:
Assay type in all cases: cell-based
HCC-2998 = experiment: NCI-60 cell line panel: HCC-2998; details: Colon Cancer; for TGI: total growth inhibition; for IC50: Homo sapiens
Description: (§1) It was carried out at the NCI, Bethesda, MD, USA, utilizing their standard protocol.

M14 = experiment: NCI-60 cell line panel: M14; details: Melanoma; for IC50: Homo sapiens; for TGI: total growth inhibition
Description: as §1

OVCAR-8 = experiment: NCI-60 cell line panel: OVCAR-8; details: Ovarian Cancer; for IC50: Homo sapiens; for TGI: total growth inhibition, in µM (unit assumed)
Description: as §1

SR = experiment: NCI-60 cell line panel: SR; details: Leukemia; for IC50: Homo sapiens; for TGI: total growth inhibition
Description: as §1

SF-268 = experiment: NCI-60 cell line panel: SF-268; details: CNS Cancer; for TGI: total growth inhibition; for IC50: Homo sapiens
Description: as §1

ACHN = experiment: NCI-60 cell line panel: ACHN; details: Renal Cancer; for IC50: Homo sapiens; for TGI: total growth inhibition
Description: as §1

UACC-62 = experiment: NCI-60 cell line panel: UACC-62; details: Melanoma; for IC50: Homo sapiens; for TGI: total growth inhibition
Description: as §1

RPMI-8226 = experiment: NCI-60 cell line panel: RPMI-8226; details: Leukemia; for IC50: Homo sapiens; for TGI: total growth inhibition
Description: as §1

KM12 = experiment: NCI-60 cell line panel: KM12; details: Colon Cancer; for TGI: total growth inhibition; for IC50: Homo sapiens
Description: as §1

HS 578T = experiment: NCI-60 cell line panel: HS 578T; details: for TGI: Breast Cancer, HS 578T, total growth inhibition; for IC50: Homo sapiens, Hs-578T
Description: as §1

HL-60(TB) = experiment: NCI-60 cell line panel: HL-60(TB); parameters: TGI: unit not given here; details: Leukemia; for IC50: Homo sapiens; for TGI: total growth inhibition
Description: as §1

SK-MEL-5 = experiment: NCI-60 cell line panel: SK-MEL-5; details: Melanoma; for IC50: Homo sapiens; for TGI: total growth inhibition
Description: as §1

DU-145 = experiment: NCI-60 cell line panel: DU-145; details: Prostate Cancer; for IC50: Homo sapiens; for TGI: total growth inhibition
Description: as §1

HCT-15 = experiment: NCI-60 cell line panel: HCT-15; details: Colon Cancer; for TGI: total growth inhibition; for IC50: Homo sapiens
Description: as §1

SK-MEL-28 = experiment: NCI-60 cell line panel: SK-MEL-28; details: Melanoma; for IC50: Homo sapiens; for TGI: total growth inhibition
Description: as §1

SW-620 = experiment: NCI-60 cell line panel: SW-620; details: Colon Cancer; for TGI: total growth inhibition; for IC50: Homo sapiens
Description: as §1

RXF 393 = experiment: NCI-60 cell line panel: RXF 393; details: Renal Cancer; for IC50: Homo sapiens; for TGI: total growth inhibition
Description: as §1

SK-OV-3 = experiment: NCI-60 cell line panel: SK-OV-3; details: Ovarian Cancer; for IC50: Homo sapiens; for TGI: total growth inhibition
Description: as §1

A549/ATCC = experiment: NCI-60 cell line panel: A549/ATCC; details: Non-Small Cell Lung Cancer; for IC50: Homo sapiens; for TGI: total growth inhibition
Description: as §1

LOX IMVI = experiment: NCI-60 cell line panel: LOX IMVI; details: Melanoma; for IC50: Homo sapiens; for TGI: total growth inhibition
Description: as §1

786-0 = experiment: NCI-60 cell line panel: 786-0; details: Renal Cancer; for IC50: Homo sapiens; for TGI: total growth inhibition
Description: as §1

NCI-H522 = experiment: NCI-60 cell line panel: NCI-H522; parameters: TGI: unit not given here; details: Non-Small Cell Lung Cancer; for IC50: Homo sapiens; for TGI: total growth inhibition
Description: as §1

K-562 = experiment: NCI-60 cell line panel: K-562; parameters: TGI: unit not given here; details: for IC50: Homo sapiens, K562, Leukemia; for TGI: Leukemia, total growth inhibition
Description: as §1

HT29 = experiment: NCI-60 cell line panel: HT29; details: for TGI: Colon Cancer, total growth inhibition; for IC50: Homo sapiens, HT-29, Colon Cancer
Description: as §1

NCI-H322M = experiment: NCI-60 cell line panel: NCI-H322M; details: Non-Small Cell Lung Cancer; for IC50: Homo sapiens; for TGI: total growth inhibition
Description: as §1

CCRF-CEM = experiment: NCI-60 cell line panel: CCRF-CEM; details: Leukemia; for IC50: Homo sapiens; for TGI: total growth inhibition
Description: as §1

IGROV1 = experiment: NCI-60 cell line panel: IGROV1; details: for IC50: Homo sapiens, IGROV-1, Ovarian Cancer; for TGI: Ovarian Cancer, total growth inhibition
Description: as §1

HOP-92 = experiment: NCI-60 cell line panel: HOP-92; parameters: TGI: unit not given here; details: Non-Small Cell Lung Cancer; for IC50: Homo sapiens; for TGI: total growth inhibition
Description: as §1

SN12C = experiment: NCI-60 cell line panel: SN12C; details: Renal Cancer; for IC50: Homo sapiens; for TGI: total growth inhibition
Description: as §1

A498 = experiment: NCI-60 cell line panel: A498; details: Renal Cancer; for IC50: Homo sapiens; for TGI: total growth inhibition
Description: as §1

MDA-MB-435 = experiment: NCI-60 cell line panel: MDA-MB-435; parameters: TGI: unit not given here; details: Melanoma; for IC50: Homo sapiens; for TGI: total growth inhibition
Description: as §1

Hep3B = experiment: MTT assay, Hep3B HCC cell line; details: Homo sapiens, 48 h, mean of triplicate assays ± SEM
Description: (§2) Two HCC cell lines (Hep3B and HepG2) were used for screening the antiproliferative activity of the synthesized compounds. The cell lines were obtained from the European Collection of Cell Cultures (ECACC, UK) and maintained in Dulbecco's Modified Eagle Medium (DMEM: Sigma-Aldrich) supplemented with 10% fetal bovine serum (FBS) and 1% penicillin/streptomycin and incubated at 37° C. in a 5% CO2 air atmosphere. In addition, WI-38 normal cell line was used to investigate the safety of these compounds.
(§3) MTT assay was conducted to calculate the IC50 of the compounds following the reported procedure . Briefly, the cells were seeded in 96-well tissue culture plates with a density of 5×10^4 cells/well and incubated overnight at 37° C. in a 5% CO2 air atmosphere. […] DMSO was used as a negative control. After 48 h, the media were aspirated, and replaced with media containing 0.5 mg/mL of MTT tetrazolium dye (Sigma-Aldrich) for 2 h at 37° C. Finally, the media were removed and 200 μL of DMSO was added to solubilize the formazan crystals. Absorbance was then measured at 570 nm using Varioskan Flash multimode plate reader (Thermo Scientific, Massachusetts, USA).

HepG2 = experiment: MTT assay, HepG2 HCC cell line; details: Homo sapiens, 48 h, mean of triplicate assays ± SEM
Description: as §2, §3

CCN1CCN(c2ccc(NC(=O)Nc3ccc(-c4cc(C(=O)NC)c5ncccc5n4)cc3)cc2C(F)(F)F)CC1 [Compound 13c, 2-(4-(3-(4-(4-Ethylpiperazin-1-yl)-3-(trifluoromethyl)phenyl)ureido)phenyl)-N-methyl-1,5-naphthyridine-4-carboxamide]
TGI (HCC-2998): 5.31 µM | IC50 (HCC-2998): 2.83 µM | IC50 (M14): 0.4 µM | TGI (M14): 1.05 µM | IC50 (OVCAR-8): 3.85 µM | TGI (OVCAR-8): 10.50 | IC50 (SR): 0.67 µM | TGI (SR): > 18 µM | TGI (SF-268): 7 µM | IC50 (SF-268): 3.09 µM | IC50 (ACHN): 2.39 µM | TGI (ACHN): 4.73 µM | IC50 (UACC-62): 3.06 µM | TGI (UACC-62): 5.66 µM | IC50 (RPMI-8226): 3.05 µM | TGI (RPMI-8226): > 18 µM | TGI (KM12): 6.65 µM | IC50 (KM12): 3.25 µM | TGI (HS 578T): 6.88 µM | IC50 (HS 578T): 2.39 µM | IC50 (HL-60(TB)): 3.42 µM | TGI (HL-60(TB)): >18.0 | IC50 (SK-MEL-5): 2.05 µM | TGI (SK-MEL-5): 4.26 µM | IC50 (DU-145): 2.23 µM | TGI (DU-145): 4.9 µM | TGI (HCT-15): 0.7 µM | IC50 (HCT-15): 0.33 µM | IC50 (SK-MEL-28): 0.32 µM | TGI (SK-MEL-28): 0.58 µM | TGI (SW-620): 0.62 µM | IC50 (SW-620): 0.31 µM | IC50 (RXF 393): 0.49 µM | TGI (RXF 393): 1.66 µM | IC50 (SK-OV-3): 3.48 µM | TGI (SK-OV-3): 7.5 µM | IC50 (A549/ATCC): 0.47 µM | TGI (A549/ATCC): 1.3 µM | IC50 (LOX IMVI): 0.67 µM | TGI (LOX IMVI): 2.66 µM | IC50 (786-0): 0.3 µM | TGI (786-0): 0.58 µM | IC50 (NCI-H522): 3.23 µM | TGI (NCI-H522): 6.40 | IC50 (K-562): 0.66 µM | TGI (K-562): >18.0 | TGI (HT29): 2.11 µM | IC50 (HT29): 0.53 µM | IC50 (NCI-H322M): 2.8 µM | TGI (NCI-H322M): 5.2 µM | IC50 (CCRF-CEM): 0.46 µM | TGI (CCRF-CEM): 1.27 µM | IC50 (IGROV1): 3.01 µM | TGI (IGROV1): 5.61 µM | IC50 (HOP-92): 2.45 µM | TGI (HOP-92): 5.67 | IC50 (SN12C): 2.77 µM | TGI (SN12C): 5.3 µM | IC50 (A498): 2.74 µM | TGI (A498): 5.31 µM | IC50 (MDA-MB-435): 0.27 µM | TGI (MDA-MB-435): 0.56

CC(C)NC(=O)c1cc(-c2ccc(NC(=O)Nc3ccc(N4CCN(C)CC4)c(C(F)(F)F)c3)cc2)nc2cccnc12 [Compound 13e, N-Isopropyl-2-(4-(3-(4-(4-methylpiperazin-1-yl)-3-(trifluoromethyl)phenyl)ureido)phenyl)-1,5-naphthyridine-4-carboxamide]
TGI (HCC-2998): 1.36 µM | IC50 (HCC-2998): 0.7 µM | IC50 (Hep3B): 1.76 ± 0.01 µM | IC50 (M14): 0.67 µM | TGI (M14): 1.41 µM | IC50 (OVCAR-8): 0.84 µM | TGI (OVCAR-8): 1.95 | IC50 (SR): 1 µM | TGI (SR): 3.19 µM | TGI (SF-268): 1.62 µM | IC50 (SF-268): 0.7 µM | IC50 (ACHN): 0.64 µM | TGI (ACHN): 1.18 µM | IC50 (UACC-62): 0.66 µM | TGI (UACC-62): 1.24 µM | IC50 (RPMI-8226): 0.98 µM | TGI (RPMI-8226): 3.48 µM | TGI (KM12): 1.66 µM | IC50 (KM12): 0.8 µM | TGI (HS 578T): 2.19 µM | IC50 (HS 578T): 0.71 µM | IC50 (HL-60(TB)): 0.77 µM | TGI (HL-60(TB)): 2.12 | IC50 (SK-MEL-5): 0.67 µM | TGI (SK-MEL-5): 1.21 µM | IC50 (DU-145): 0.72 µM | TGI (DU-145): 1.35 µM | TGI (HCT-15): 1.41 µM | IC50 (HCT-15): 0.7 µM | IC50 (HepG2): 0.8 ± 0.04 µM | IC50 (SK-MEL-28): 0.64 µM | TGI (SK-MEL-28): 1.17 µM | TGI (SW-620): 1.3 µM | IC50 (SW-620): 0.68 µM | IC50 (RXF 393): 0.51 µM | TGI (RXF 393): 1.11 µM | IC50 (SK-OV-3): 2.93 µM | TGI (SK-OV-3): 8.23 µM | IC50 (A549/ATCC): 0.73 µM | TGI (A549/ATCC): 1.64 µM | IC50 (LOX IMVI): 0.62 µM | TGI (LOX IMVI): 1.15 µM | IC50 (786-0): 0.53 µM | TGI (786-0): 1.1 µM | IC50 (NCI-H522): 0.67 µM | TGI (NCI-H522): 1.37 | IC50 (K-562): 0.92 µM | TGI (K-562): >38.8 | TGI (HT29): 1.37 µM | IC50 (HT29): 0.67 µM | IC50 (NCI-H322M): 0.71 µM | TGI (NCI-H322M): 1.55 µM | IC50 (CCRF-CEM): 0.74 µM | TGI (CCRF-CEM): 1.98 µM | IC50 (IGROV1): 0.74 µM | TGI (IGROV1): 1.39 µM | IC50 (HOP-92): 0.7 µM | TGI (HOP-92): 1.33 | IC50 (SN12C): 0.68 µM | TGI (SN12C): 1.26 µM | IC50 (A498): 4.71 µM | TGI (A498): 9.61 µM | IC50 (MDA-MB-435): 0.62 µM | TGI (MDA-MB-435): 1.26
